{"source": "patent US20100136537A1", "about": "“PHOTORECEPTOR PRECURSOR CELLS” (THE REGENTS OF THE UNIVERSITY OF MICHIGAN, priority 2006, published 2010)", "molecules": {"B1": {"name": "RPGR-ORF15 (retina-enriched RPGR-ORF15 isoform(s)) (protein, mouse, UniProt Q9R0X5-5 1-1305, looked up)", "chain": "MAESESLVPDTGAVFTFGKTKFAENIPSKFWFKNDIPICLSCGDEHTAIVTGNNKLYMFGSNNWGQLGLGSKAAIIKPTCIKALKPEKVKLAACGRNHTLVSTDTGGVYAAGGNNEGQLGLGDTDDRDTFHQIVFFTPADTIKQLSAGANTSAALTEDGKLFMWGDNSEGQIGLEDKSNVCIPHEVTVGKPISWISCGYYHSAFVTMDGELYTFGEPENGKLGLPNELLMNHRSPQRVLGIPERVIQVACGGGHTVVLTEKVVYAFGLGQFGQLGLGTFLFETSEPKIIERIKDQKICHISCGENHTALMTELGLLYTFGDGRHGKLGLGMENFTNQFFPTLCSNFLRFAVQLIACGGCHMLVFATPRLGTIDEPKFEDVYEPYISTGSFSINDLSPRSSLNRSLSARLRRRERERPPCSASMVGTLPPLEGTSASTSAYFYPSSPPFHLSVNNYPEKSPSESMEPLDSDYFEDKMNKDTETENSSAVDSENFGETNDILNMTHMMTTSSNEKLLDFSPIQKQQNQDTFEKVMESTPCTENEDSYEYEEMSKIKEVTVYKQYLAKGIYMIRPAEILEAFSDEEVGNGLDQVEEPRVFTDGKGLQSKQVGKESDEEIVSEKKTEVMEVADVKKIRESEENSKSDSLFDDLPDKTMNSESEDNKDIAEERRSSEQNMTFDSETELVEEPDSYMECERHSEQDSAEELEQPKLVEYSSEEKDEKDEKDDDEVETENLWYDRNCTEQETENVFRATRFFPKFDLKHDHLSGIPEEQEGPEDSEGNVVVEQVVQAQKENLEFEGDRKEAKAEAPSDVITEKEVSESERESGGEREDRSEGDGDQICEKVSLETEHLQRAQGKQERKKGKDKRARCILDMKEREEDKGWEKGSEGGDKMKRDEGNQEKRKKEMEERDAGDERSEEEEGEEEEPEEGEKEEGGEEEEGTSEDQSREDEGDRQEKEGRREGKGRQEDGREGWKEGEEQEQEEEIEEGEEEEREGEEEGGEEEGEGEGEREEEGEGEEEGEGEEEGEGEEEGEGEEEGEGEEEGEGEEEGEGEEEGEGEEDGEGEEDGEGEEEGEGEEEGEREEDGEGEEDGEGEEEGEGEEEGEGEEEGEGEEEGEGEGEEEGEGEWEGEEEGEGEEEGEGEEEGEGEEEGEGEEEGEGEEEGGEDDEGEELEKKKGDITEEEEEEEEGQEGDEREREEHGSCEDDVEEDKTYDREEGEYKKAIGKVADNESQEDRKQSPKVSKINGSMKYGRHGTYSEKPITNLGKTQPSKMPMESRQLVENGLLGSERFWSDVLPLYLELK"}, "B2": {"name": "nucleophosmin (NPM) (other, mouse, UniProt Q61937 1-292, looked up)", "chain": "MEDSMDMDMSPLRPQNYLFGCELKADKDYHFKVDNDENEHQLSLRTVSLGAGAKDELHIVEAEAMNYEGSPIKVTLATLKMSVQPTVSLGGFEITPPVVLRLKCGSGPVHISGQHLVAVEEDAESEDEDEEDVKLLGMSGKRSAPGGGNKVPQKKVKLDEDDEDDDEDDEDDEDDDDDDFDEEETEEKVPVKKSVRDTPAKNAQKSNQNGKDLKPSTPRSKGQESFKKQEKTPKTPKGPSSVEDIKAKMQASIEKGGSLPKVEAKFINYVKNCFRMTDQEAIQDLWQWRKSL"}, "B3": {"name": "Nephrocystin-5 (NPHP5) (other, mouse, UniProt Q8BP00 1-598, looked up)", "chain": "MKPAGTDPRILSLAAEVAKSPEQNVPVILLKLKEIINNTPLGSSELKKVKQDIYCYDLIQYCLLVLSQDSSRIQGGWSTISQLTQILSHCCVGLEPGEDGEEFYKELLPSAAENFLILGRRLQTCFINATKGEEQDKLLHFFQIVTDSLFWLLGGHVQLIQNVLQSDHFLHLLQTDNVQIGASVMTLLQNILQINSGNLLKIEGKALHSILDEILFKLLSTPSPVIRSTATKLLLVLAESHQEILILLRLSACYKGLRSLLNKQETLTEFSRELRQLVDLLTPKIHQEVEEQKLHKAACLIQAYWKGFQTRKRLKKLPSAVIALQRSFRSKRTKMMLELNRQKEEEDLRLKLQLQRQRAMRLSRESRLNMLEIIHPGQVEKYNREMEEKSALTIQKHWRGYRERKNFRQQRPSLTEYKAAVTLQRAVLKFLAKCRKKKKLFASWHGLQELTDARRVELKQQVDDYVKRHPCSQMSEAASRELHAQAQERLQHYFMGRAIEERAQQHREALMAQISTNIEQLMKAPSLKEAEGKEPEQFLSRSRPVAAKAKQAHLTTLKHIQAPWWKKLGEEPGDEVDVPKDELSIDLGMLFIGGTKPP"}}, "key": {"NRL": {"test_system": "NRL", "experiment": "NRL expression in serum-starved Y79 cells (immunoblot, Northern blot)", "format": "cell-based, human", "details": "for NRL expression (immunoblot): 24 h incubation", "experimental": "Cell Culture. Y79 human retinoblastoma cells (ATCC HTB 18) and HEK293 (ATCC CRL-1573) were maintained in RPMI 1640 and Dulbecco's modified Eagle's medium, respectively, under standard conditions with 15% (v/v) fetal bovine serum (FBS), penicillin G (100 units/ml), and streptomycin (100 μg/ml) at 37° C. and 5% CO2. For serum starvation and RA treatment experiments, Y79 cells (5×10^4) were cultured in the presence or absence of the serum (same batch of serum was used in all the experiments), at RA, 9-cis-RA, cycloheximide (CHX), and 4-(E-2-(5,6,7,8-tetrahydro-5,5,8,8-tetramethyl-2-naphthalenl)-1-propenyl) benzoic acid (TTNPB) at indicated concentrations. Me2SO or ethanol was added to Y79 cells in lieu of the soluble factors as negative control.\nFor protein synthesis inhibition experiments, Y79 cells were serum-starved for 24 h, and then simultaneously treated with RA and CHX for 8 or 24 h. NRL expression was analyzed by immunoblotting. In another set of experiments, serum-starved Y79 cells were first incubated with RA alone for 8 or 24 h and then CHX was added. Cell extracts were then analyzed 24 h later for examining NRL expression by immunoblotting.\nProtein Expression Analysis."}, "mGluR8": {"biological_target": "T1, mGluR8 (Mus musculus, UniProt P47743)", "T1 construct": "from tissue; host or cells: whole-mount mouse neural retina; integrated Nrl.gfp-positive donor rods and recipient photoreceptors", "T1 sequence (P47743 34-908)": "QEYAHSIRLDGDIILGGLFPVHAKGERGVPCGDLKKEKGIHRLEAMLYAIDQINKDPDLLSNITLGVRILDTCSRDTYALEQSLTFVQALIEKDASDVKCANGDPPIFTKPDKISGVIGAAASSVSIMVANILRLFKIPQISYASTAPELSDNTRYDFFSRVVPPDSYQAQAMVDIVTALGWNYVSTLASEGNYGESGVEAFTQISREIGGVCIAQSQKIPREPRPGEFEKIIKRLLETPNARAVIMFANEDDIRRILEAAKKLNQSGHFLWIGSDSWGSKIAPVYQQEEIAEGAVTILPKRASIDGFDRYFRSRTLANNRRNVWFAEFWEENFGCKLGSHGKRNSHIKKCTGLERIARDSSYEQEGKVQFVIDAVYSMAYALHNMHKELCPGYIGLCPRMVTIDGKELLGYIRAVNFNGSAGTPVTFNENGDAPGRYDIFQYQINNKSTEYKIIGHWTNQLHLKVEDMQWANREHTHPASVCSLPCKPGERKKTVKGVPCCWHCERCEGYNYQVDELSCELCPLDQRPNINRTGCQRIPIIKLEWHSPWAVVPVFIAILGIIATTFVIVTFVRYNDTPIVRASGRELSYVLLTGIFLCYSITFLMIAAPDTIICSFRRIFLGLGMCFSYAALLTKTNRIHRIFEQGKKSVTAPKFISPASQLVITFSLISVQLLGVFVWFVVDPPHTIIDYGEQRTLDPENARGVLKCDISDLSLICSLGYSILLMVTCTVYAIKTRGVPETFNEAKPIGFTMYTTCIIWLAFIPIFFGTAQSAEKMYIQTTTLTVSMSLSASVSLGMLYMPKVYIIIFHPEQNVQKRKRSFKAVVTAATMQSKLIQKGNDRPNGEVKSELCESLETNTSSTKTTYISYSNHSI", "experiment": "Calcium imaging (Fura Red) of whole-mount transplanted retinas, mGluR8 stimulation", "format": "cell-based", "details": "for changes in intracellular calcium ([Ca2+]i) on agonist application: recipient and Nrl.gfp-positive integrated rod cells, DCPG 20 μM in bath", "experimental": "(§1) Calcium Imaging. Retinas transplanted with Nrl.gfp^+/+ P1 cells were dissected free of all surrounding tissue. Whole-mount neural retinas were loaded with Fura Red-AM (15 μM, Molecular Probes) and the dispersant Cremophor-EL (0.03%, Sigma) for 1.5 hrs at 36° C. and then de-esterified in fresh DMEM-F12 (without phenol red) for 30 mins at 36° C. Retinas were transferred to the stage of an inverted microscope (SP2, Leica, UK) and held flat under a nylon-strung platinum wire ‘harp’. XY images were taken through the cell bodies in the inner region of the ONL, nearest the outer plexiform layer, where rod (as opposed to cone, which lie at the outer edge of the ONL) photoreceptor nuclei reside. Images were acquired at 3 sec intervals and analysed off-line. Cells were selected at random and the mean fluorescence of individual cells was calculated and normalised against the fluorescence at time 0s. Drugs were applied by micro-pipette injection into the bathing solution.\n(§2) Drugs. DCPG ((S)-3,4-dicarboxyphenylglycine) (20 μM; final concentration in bath), CPPG ((RS)-alpha-cyclopropyl-4-phosphonophenylglycine) (100 μM) and NMDA (N-methyl-D-aspartate) (200 μM) were supplied by Tocris (UK)."}, "NMDA receptor": {"test_system": "NMDA receptor", "experiment": "Calcium imaging (Fura Red) of whole-mount transplanted retinas, NMDA receptor agonist", "format": "cell-based, mouse", "details": "NMDA 200 μM; photoreceptors", "experimental": "as §1, §2"}, "[1]": {"biological_target": "ΔCEP290 (truncated CEP290 of the rd16 mouse, in-frame deletion of amino acid residues 1599-1897) (mouse) (UniProt Q6A078)", "experiment": "co-immunoprecipitation with ORF15^CP antibody from rd16 vs WT retinal extract, immunoblot for CEP290"}, "[2]": {"biological_target": "T2, CEP290 (wild-type mouse centrosomal protein CEP290, endogenous, retina) (mouse, UniProt Q6A078 1-2472)", "T2 construct": "range 1-2472; Endogenous protein in retinal extracts; alternatively spliced lower-mass isoforms are also mentioned; also called WT protein; full-length CEP290", "T2 sequence (Q6A078 whole entry, canonical isoform)": "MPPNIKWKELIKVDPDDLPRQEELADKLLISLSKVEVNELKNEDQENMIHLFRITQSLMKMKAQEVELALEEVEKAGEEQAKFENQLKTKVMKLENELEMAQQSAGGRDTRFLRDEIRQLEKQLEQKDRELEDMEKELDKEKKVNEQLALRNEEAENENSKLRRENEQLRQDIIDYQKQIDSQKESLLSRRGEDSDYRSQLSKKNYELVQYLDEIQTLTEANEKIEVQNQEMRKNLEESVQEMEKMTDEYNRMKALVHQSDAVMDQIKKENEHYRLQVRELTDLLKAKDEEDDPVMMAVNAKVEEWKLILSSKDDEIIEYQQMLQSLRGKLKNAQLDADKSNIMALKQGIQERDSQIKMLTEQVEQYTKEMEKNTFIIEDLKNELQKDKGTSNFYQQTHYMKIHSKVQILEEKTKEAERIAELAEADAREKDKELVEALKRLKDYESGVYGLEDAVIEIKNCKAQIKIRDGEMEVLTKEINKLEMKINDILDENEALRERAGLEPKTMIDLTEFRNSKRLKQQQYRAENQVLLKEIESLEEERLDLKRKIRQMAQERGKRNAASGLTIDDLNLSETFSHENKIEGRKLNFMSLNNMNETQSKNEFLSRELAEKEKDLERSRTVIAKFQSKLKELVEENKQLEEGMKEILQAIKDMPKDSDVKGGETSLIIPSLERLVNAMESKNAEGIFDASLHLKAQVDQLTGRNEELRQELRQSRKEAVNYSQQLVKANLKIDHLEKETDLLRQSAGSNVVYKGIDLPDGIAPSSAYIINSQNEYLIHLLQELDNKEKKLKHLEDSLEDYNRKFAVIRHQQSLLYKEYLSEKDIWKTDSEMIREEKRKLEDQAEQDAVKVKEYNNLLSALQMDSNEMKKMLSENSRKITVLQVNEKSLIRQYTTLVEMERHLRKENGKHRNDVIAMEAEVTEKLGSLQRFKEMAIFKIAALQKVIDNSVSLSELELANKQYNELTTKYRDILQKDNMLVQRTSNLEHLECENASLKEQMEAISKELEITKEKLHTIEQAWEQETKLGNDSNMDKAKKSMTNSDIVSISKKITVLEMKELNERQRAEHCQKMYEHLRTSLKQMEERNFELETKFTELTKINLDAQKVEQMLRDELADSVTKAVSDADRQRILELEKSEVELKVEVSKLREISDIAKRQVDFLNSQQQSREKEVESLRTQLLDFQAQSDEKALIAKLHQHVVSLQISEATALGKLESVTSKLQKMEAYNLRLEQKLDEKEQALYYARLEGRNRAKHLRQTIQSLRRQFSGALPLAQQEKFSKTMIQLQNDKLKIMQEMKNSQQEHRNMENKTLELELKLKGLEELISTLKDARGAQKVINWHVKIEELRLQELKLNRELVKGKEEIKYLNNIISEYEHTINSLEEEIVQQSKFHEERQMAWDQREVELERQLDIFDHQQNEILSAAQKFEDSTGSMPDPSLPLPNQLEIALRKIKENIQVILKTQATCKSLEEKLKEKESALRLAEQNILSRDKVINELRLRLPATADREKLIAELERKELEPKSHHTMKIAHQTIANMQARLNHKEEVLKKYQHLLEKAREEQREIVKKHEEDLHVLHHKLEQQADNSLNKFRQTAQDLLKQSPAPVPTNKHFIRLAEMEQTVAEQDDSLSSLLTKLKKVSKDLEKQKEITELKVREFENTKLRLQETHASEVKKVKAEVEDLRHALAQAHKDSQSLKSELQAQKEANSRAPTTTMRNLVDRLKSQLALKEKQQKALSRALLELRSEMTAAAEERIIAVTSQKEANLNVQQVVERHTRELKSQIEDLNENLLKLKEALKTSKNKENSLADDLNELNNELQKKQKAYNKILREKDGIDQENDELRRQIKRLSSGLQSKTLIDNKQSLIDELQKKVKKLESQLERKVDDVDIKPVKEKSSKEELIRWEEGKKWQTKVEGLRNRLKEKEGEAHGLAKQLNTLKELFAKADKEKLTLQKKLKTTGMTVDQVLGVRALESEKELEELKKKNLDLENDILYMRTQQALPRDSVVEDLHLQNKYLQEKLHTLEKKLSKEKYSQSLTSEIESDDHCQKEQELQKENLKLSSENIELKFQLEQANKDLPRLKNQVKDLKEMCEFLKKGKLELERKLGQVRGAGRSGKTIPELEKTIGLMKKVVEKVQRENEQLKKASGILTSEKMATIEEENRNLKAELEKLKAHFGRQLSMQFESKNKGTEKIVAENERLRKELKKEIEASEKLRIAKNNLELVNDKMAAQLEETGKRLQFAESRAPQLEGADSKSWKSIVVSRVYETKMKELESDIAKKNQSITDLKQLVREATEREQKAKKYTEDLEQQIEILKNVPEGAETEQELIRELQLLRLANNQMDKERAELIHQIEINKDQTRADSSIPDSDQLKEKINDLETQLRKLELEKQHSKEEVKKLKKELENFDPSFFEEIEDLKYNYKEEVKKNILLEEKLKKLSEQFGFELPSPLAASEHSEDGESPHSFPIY", "experiment": "co-immunoprecipitation from retinal extracts, immunoblot"}}, "data": [{"molecule": "CC1=C(/C=C/C(C)=C\\C=C\\C(C)=C\\C(=O)O)C(C)(C)CCC1", "note": "[9-cis RA, 9-cis-RA]", "values": [{"measurement": "NRL expression (immunoblot)", "setting": "NRL; serum-starved Y79 cells", "value": "dose-dependent increase in NRL expression"}]}, {"molecule": "N[C@@H](CCC(=O)O)C(=O)O", "note": "[glutamate]", "values": [{"measurement": "changes in intracellular calcium ([Ca2+]i) on agonist application", "setting": "mGluR8", "value": "consistently evoked changes in ([Ca^2+]i)"}]}, {"molecule": "NC(C(=O)O)(c1ccc(P(=O)(O)O)cc1)C1CC1", "note": "(racemic) [CPPG, (RS)-alpha-cyclopropyl-4-phosphonophenylglycine]", "values": [{"measurement": "block of the mGluR8 agonist-evoked [Ca2+]i change", "setting": "mGluR8; CPPG 100 μM", "value": "can be blocked"}]}, {"molecule": "N[C@H](C(=O)O)c1ccc(C(=O)O)c(C(=O)O)c1", "note": "[DCPG, (S)-3,4-dicarboxyphenylglycine]", "values": [{"measurement": "changes in intracellular calcium ([Ca2+]i) on agonist application", "setting": "mGluR8", "value": "consistently evoked changes in ([Ca^2+]i)"}]}, {"molecule": "C/C(=C\\c1ccc(C(=O)O)cc1)c1ccc2c(c1)C(C)(C)CCC2(C)C", "note": "[TTNPB, 4-(E-2-(5,6,7,8-tetrahydro-5,5,8,8-tetramethyl-2-naphthalenl)-1-propenyl) benzoic acid]", "values": [{"measurement": "NRL expression (immunoblot)", "setting": "NRL; serum-starved Y79 cells", "value": "mimicked"}]}, {"molecule": "CN[C@H](CC(=O)O)C(=O)O", "note": "[NMDA, N-methyl-D-aspartate]", "values": [{"measurement": "effect of NMDA receptor agonist on [Ca2+]i", "setting": "NMDA receptor", "value": "showed no effect"}]}, {"molecule": "C[C@@H]1C[C@@H]([C@H](O)CC2CC(=O)NC(=O)C2)C(=O)[C@@H](C)C1", "note": "[CHX, cycloheximide]", "values": [{"measurement": "effect on RA-mediated NRL induction, added simultaneously with RA", "setting": "NRL; CHX 20 μg/ml with at RA, serum-starved Y79 cells", "value": "blocked NRL induction"}, {"measurement": "effect on NRL expression, added after RA pretreatment", "setting": "NRL; cells pretreated with RA for 8 or 24 h, then CHX", "value": "no detectable effect on NRL expression"}]}, {"molecule": "B1", "values": [{"measurement": "fold higher level co-immunoprecipitated compared with the WT protein", "setting": "[1]", "value": 50, "unit": "times"}]}, {"molecule": "B2", "values": [{"measurement": "binding result", "setting": "[2]", "value": "no binding"}]}, {"molecule": "B3", "values": [{"measurement": "binding result", "setting": "[2]", "value": "no binding"}]}]}
